Data taken from patent US20170056380A1, “Systems, Methods, Techniques, and Compounds in Research and Treatment of Portal Hypertension and other Conditions” (priority 2014, published 2017).
“Also recorded” adds a separate entry of the source.

Key:
protein kinase B (Akt) = test: Akt phosphorylation (Ser473) and total Akt by immunoblotting in sinusoidal endothelial cells; type: cell-based, rat
Description: (§1) Cell isolation and culture. Sinusoidal endothelial cells were isolated from male Sprague-Dawley rats (450-500 g) (Harlan, Indianapolis, Ind.). In brief, after in situ perfusion of the liver with 20 mg/100 mg pronase (Roche Molecular Biochemicals, Indianapolis, Ind.), followed by collagenase (Worthington Biochemical, Lakewood, N.J.), dispersed cell suspensions were removed from a layered discontinuous density gradient of 8.2 and 15.6% Accudenz (Accurate Chemical and Scientific, Westbury, N.Y.), further purified by centrifugal elutriation (18 ml/min flow), and were grown in medium containing 20% serum (10% horse/calf). The purity of endothelial cells was documented by their uptake of fluorescently labeled di-l-acetoacetylated low-density lipoprotein as described (21). Only primary sinusoidal endothelial isolates of >95% purity were used for study. Experiments were performed with cells frorrr a minimum three different isolations (for all experiments).
(§2) Immunoblotting, Immunoblotting was performed by using specified primary antibodies, including anti-eNOS antibody (1:1,000; BD Transduction Laboratories, San Jose, Calif.), anti-phospho-eNOS-Ser^1177 (1:1,000; BD Transduction Laboratories or Cell Signaling Technology), anti-phospho-Akt, anti-Akt (Cell Signaling Technology, Beverly, Mass.), and horseradish peroxidase-conjugated secondary antibody. Specific signals were visualized using enhanced chemiluminescence as per the manufacturer's instructions and were scanned and quantitated with standard software.
Animal model of liver injury and portal hypedension. Liver injury and portal hypertension were induced by performing bile duct ligation in 450- to 500-gram male retired breeder Sprague-Dawley rats as described in Liu and 20- to 25-gram male BALB/c mice. Briefly, bile duct ligation was performed by surgical isolation and ligation of the common bile duct. […] A calibrated low-pressure transducer (Digi-Med, Louisville, Ky.) was connected to the portal vein catheter, and portal pressure was recorded continuously using the Digi-Med Integrator 200 System (Digi-bled).

Erk1/2 = test: Erk phosphorylation by immunoblotting in sinusoidal endothelial cells; type: cell-based, rat; conditions: 2 h
Description: as §1, with “Only primary sinusoidal endothelial isolates of >95% purity were used for study. Experiments were performed with cells frorrr a minimum three different isolations (for all experiments).” left out
as §2, with “software. […]” for “software.”

[1] = 50 or 100 nM, normal sinusoidal endothelial cells

Cc1ncc2c(c1O)COC2c1ccc(Cl)cc1 (centres unmarked) [cicletanine, 3-(4-chlorophenyl)-1,3-dihydro-7-hydroxy-6-methylfuro-(3,4-c) pyridine]
Akt phosphorylation at Ser473 (protein kinase B (Akt); [1]): increased | total Akt expression (protein kinase B (Akt); normal sinusoidal endothelial cells): without a change | Akt phosphorylation (protein kinase B (Akt); sinusoidal endothelial cells injured by bile duct ligation, 2 h): restored Akt phosphorylation to above normal levels | phosphorylation of Erk (Erk1/2; [1]): increased in a dose-dependent manner; also recorded: robustly induced | Erk1/2 phosphorylation (Erk1/2; sinusoidal endothelial cells injured by bile duct ligation): increased
